We go through two compounds from patent US11674967B2, “Method of identifying potential inhibitors of APO TNFα trimers” (UCB BIOPHARMA SRL, priority 2015, dated 2023).

For test [1], the system named is TNFα-induced IL-8 production. The test is described as follows: TNFα-induced IL-8 production by human monocytes. The format is cell-based. Particulars: TNFα ~1 ng/ml, 18 hours. As to the method:
Venous blood from healthy donors was collected by venupuncture into sodium/heparin containing tubes (BD Biosciences). Peripheral blood mononuclear cells (PBMC) were isolated by density gradient centrifugation with Ficoll Paque (Amersham Biosciences). Briefly, 10 mL of blood was diluted 1:1 (v/v) with RPMI 1640 (Gibco) and carefully layered onto 20 mL Ficoll Paque. Cells were spun down for 30 minutes (min) at 470 g, the PBMC collected, washed once in RPMI 1640 and any remaining contaminating erythrocytes lysed in erythrocyte lysis buffer (1 g/L KHCO3, 8.3 g/L NH4Cl, 0.0372 g/L EDTA). Isolation of monocytes from the PBMC was performed using CD14+ Magnetic MicroBeads (Miltenyi Biotec) according to the manufacturer's instructions. Briefly, PBMC were resuspended in Dulbecco's modified Eagle's medium containing 5% BSA (Sigma) and 2 mM EDTA (Sigma) at 1×10^7 cells/ml. […] of CD14 MicroBeads per 10^7 total cells were incubated for 15 min at room temperature. The magnetic separation was performed using a LS column (Miltenyi Biotec). […]
Human IL-8 was measured in the cell culture supernatants using enzyme-linked immunosorbent assay (ELISA) kits from R&D Systems Ltd. according to the manufacturer's instructions. […] Plates were read at a wavelength of 630 nm with correction at 470 nm.

For test [2], the system named is hTNFα-induced neutrophil recruitment. Nature of the test: Neutrophil recruitment in mice, compound given orally before hTNFα i.p. The test is classed as in vivo, Balb/c mice. Here is the method:
In a further experiment, mice were treated with hTNFα (0.3 μg/ml) and the compound of formula (3) was administered orally (p.o.).
The compound of formula (3) was made into a suspension in 1% methylcellulose vehicle using a covaris machine.
An anti-human TNFα monoclonal antibody (anti-hTNFα, UCB) was also utilised as a positive control in this study.
Ten male Balb/c mice were used per group except in the group that received anti-hTNFα for which 4 mice were used.
Mice received 100 μL of either vehicle (1% methylcellulose) or compound of formula (3) at 30 mg/kg or 100 mg/kg p.o. 30 minutes (t=−30) or anti-hTNFα at 10 mg/kg i.p. 5 minutes (t=−5) prior to being injected with human TNFα.
All mice were killed by cervical dislocation two hours post-injection of hTNFα (t=2 h) and the peritoneal cavity was lavaged and neutrophil numbers measured as described above.

Test [3] relates to TNFR2. Nature of the test: Membrane TNF - TNFR2 signalling (NS0-mTNF cells with expanded primary human T cells). Particulars: compound bound to membrane TNFα on NS0 cells. The test is classed as cell-based. Here is the method:
A murine B cell line (NS0-mTNF) stably expressing non-cleavable human membrane TNF due to a mutation at the TACE cleavage site was used to trigger TNFR2 signalling in PHA-L and IL-2 expanded primary human T cells. […] TNFR1 was also present on these cells but was blocked using a UCB mouse anti-human-TNFR1 antibody 5R16.
NS0-mTNF cells were cultured with 10 μM NCEs for 1 hour to allow binding of Compounds to membrane TNF. T cells were then mixed with the NS0-mTNF cells and following a brief spin to allow cell-cell contact, cells were incubated for 5 min and then lysed in lysis buffer. […] First TRAF-2 recruitment to the TNFR2 receptor was measured in Co-immunoprecipitation experiments as a measure of membrane proximal signalling. After lysis of cells TNFR2 was isolated from the lysate using polyclonal goat anti-human TNFR2 antibodies followed by protein G sepharose bead purification. TNFR2 associated TRAF-2 was then measured in immunoblots after running the purified TNFR2 preparation on a SDS-PAGE. In addition, the whole cell lysate was also sampled for the presence of pNFκB using SDS-PAGE and pNFκB specific immunoblots.
• PBMC from 3 three different donors were cultured in 6 well plates with 10×10^6 cells per well in 5 ml of RPMI1640 supplemented with 10% FCS, 1% human serum, HEPES GlutaMAX, 25 U/ml hIL-2 (Roche) and 2 μg/ml PHA-L (Sigma) to grow out T cells • after 3 days cells were resuspended and cultured in 75 cm^2 flasks with the same media as above, but lacking the PHA-L • growth of culture was monitored and media was changed every 3 days.
This is a 2× solution • prepare 500 μl of 10×10^6 NS0-wt cells • After 1 h add 500 μl human T cells (50×10^6 cells/test) in human media at 37° C. T cells were preincubated for 15 min @37° C. with 50 μg/ml 5R16 anti-TNFR1 Fab-PEG to block signalling via TNFR1 prior adding to the NS0 cells. […]

Usually IC50 stands for the concentration that inhibits the measured activity by half. Low readings indicate greater potency in that assay, high ones weaker potency in that assay.

Molecules are shown by their SMILES.

`Cc1ccc(C)c(Cn2c(C(O)c3ccncc3)nc3ccccc32)c1` (stereo not shown) [Compound 3] registered an IC50 in test [1] of 454 nM. Also, the “reduction of TNFα stimulated neutrophil recruitment into the peritoneal cavity” value came to 49% in test [2] (30 mg/kg p.o.) and 79% in test [2] (100 mg/kg p.o.).
`Cc1ccc(C)c(Cn2c(C(O)c3ccncc3)nc3ccc(-c4cnn(C)c4)cc32)c1` (stereo not shown) [Compound 15]: in test [3], the “TNFR2 specific membrane proximal (TRAF-2 recruitment to TNFR2) and downstream (pNFκB) signalling” value is “does not impair”.
